Assays:
[1] = tested on: hypertensive and nonhypertensive stroke patients; settings: cited from earlier work
[2] = tested on: hypertensive patients after cerebral ischemia, transitory ischemic attack or intracerebral hemorrhage; test: Prospective, randomized clinical study (PROBE design) of eprosartan versus nitrendipine for prevention of subsequent strokes, interim report; format: in vivo, human; settings: for incidence of subsequent cerebrovascular events / number of subsequent cerebrovascular events: interim report, 179 patients eprosartan group, 158 patients nitrendipine group, average observation period 18.4 / 18.3 months; for number of subsequent cerebrovascular events: start 600 mg eprosartan once daily or 10 mg nitrendipine q.d.
Source text: A clinical study is currently being conducted on 1369 patients, investigating the suitability of antihypertensive agents of various pharmacological classes to reduce a patient's risk of suffering a subsequent stroke.
Of the 1369 patients (male/female), 691 patients received the AT1-receptor antagonist eprosartan (as eprosartan mesylate); 678 of the 1369 patients received the calcium antagonist nitrendipine.
The study is being conducted as a prospective, randomized, controlled and multicentric study and corresponds to the PROBE design (=prospective, randomized, open-blinded endpoint). The primary target criterion is the evaluation of the total mortality and the total number of cardiovascular and cerebrovascular events (strokes) in the sense of this invention.
The subsequent efficacy parameter is the change in mental abilities (evaluated on the basis of neurological findings, Barthel index and Rankin scale). In addition, the change in the average blood pressure over a period of time is evaluated in measurements performed on the patients sitting down in the office as well as in ambulatory 24-hour blood pressure measurements.
The study begins within 24 months after the occurrence of cerebral ischemia or an intracerebral hemorrhage in a patient. The patients are observed for up to four years. The essential prerequisite for including a patient in the study is hypertension requiring treatment and the condition following a cerebral ischemia, a transitory ischemic attack or an intracerebral hemorrhage within the last 24 months. Essential exclusion criteria include an occlusion or stenosis of greater than 70% of the internal carotid artery (ICA), manifest cardiac insufficiency (NYHY [sic; NYHA] class III-IV), age of patient greater than 85 years at the time of the cerebrovascular event, anticoagulant therapy for a patient because of cardiac arrhythmia, high-grade aortic or mitral valve stenosis, unstable angina pectoris or a known hypersensitivity to AT1-receptor antagonists or calcium antagonists of the dihyropyridine type or chemically related substances.
After inclusion in the study, the patients begin the randomized treatment phase with eprosartan or nitrendipine. Depending on the blood pressure readings and patient-specific criteria, treatment begins with 600 mg eprosartan once daily or 10 mg nitrendipine q.d. For long-term therapy, a diastolic blood pressure of less than 90 mmHg sitting down and a systolic blood pressure of less than 140 mmHg are the goals. For the 24-hour blood pressure measurements, a daily average of less than or equal to 135/85 mmHg is the goal. If additional antihypertensive therapy is necessary, conventional recognized criteria such as those recommended by the German Hypertension League are followed in the combination therapy. Combination therapy with ACE inhibitors, AT1-receptor antagonists or calcium antagonists should not be used.
Study end points (target criteria) are transmitted immediately to the central study office, where they are treated as open-blind results with respect to the medication and then forwarded to the End Point Committee. The committee performs the evaluation and classification of the findings with regard to a cardiovascular or cerebrovascular end point.
In an interim report on this study, the data on a total of 337 of the participating patients has been evaluated; 179 of these 337 patients received eprosartan (eprosartan group) and 158 of these 337 patients received nitrendipine (nitrendipine group). […]

Row | SMILES | blood pressure of patients ([1]; hypertensive group) | risk of suffering a subsequent stroke ([1]; subgroup of hypertensive patients, versus placebo patient group) | incidence of subsequent cerebrovascular events [2] | number of subsequent cerebrovascular events [2] | reduction in a patient's risk of having a subsequent stroke ([2]; monotherapy, conclusion from the interim clinical findings)
1 | CCC[C@H](N[C@@H](C)C(=O)N1[C@H](C(=O)O)C[C@@H]2CCCC[C@@H]21)C(=O)OCC [ACE monotherapy, perindopril] | lowered to a comparable extent | did not differ from the corresponding risk in the placebo patient group | – | – | –
2 | CCCCc1ncc(/C=C(\Cc2cccs2)C(=O)O)n1Cc1ccc(C(=O)O)cc1.CS(=O)(=O)O [eprosartan, (E)-α-[[2-butyl-1-[(4-carboxyphenyl)methyl]-1H-imidazol-5-yl]-methylene]-2-thiophenepropanoic acid monomethanesulfonate] | – | – | 8.4% | 15 | significant reduction
3 | CCOC(=O)C1=C(C)NC(C)=C(C(=O)OC)C1c1cccc([N+](=O)[O-])c1 (stereo not shown) [nitrendipine] | – | – | 13.9% | 22 | –
